In series [1] the test system is adhesion of Ramos cells to VCAM-1. Kind of series: Adhesion of Ramos cells to immobilized VCAM-1 (domains 1-3) (Ramos—VCAM-1 assay). It counts as cell-based. As to conditions: Homo sapiens, Ramos, 1 h. From the text: (§1) In Vitro Assay: Adhesion of Jurkat/Ramos Cells to Immobilized VCAM-1 (Domains 1-3)
(§2) Preparation of VCAM-1 (Extracellular Domains 1-3)
(§3) Complementary DNA (cDNA) encoding 7 domain form of VCAM-1 (GenBank accession #M60335) was obtained using Rapid-Screen™ cDNA library panels (OriGene Technologies, Inc) at Takara Gene Analysis Center (Shiga, Japan). The primers used were 5′-CCAAGGCAGAGTACGCAAAC-3′ (sense) and 5′-TGGCAGGTATTATTAAGGAG-3′ (antisense). PCR amplification of the 3 domain VCAM-1 cDNA was perform using Pfu DNA polymerase (Stratagene) with the following sets of primers: (U-VCAMd1-3) 5′-CCATATGGTACCTGATCAATTTAAAATCGAGACCACCCCAGAA-3′; (L-VCAMd1-3) 5′-CCATATAGCAATCCTAGGTCCAGGGGAGATCTCAACAGTAAA-3′. PCR cycle was 94° C. for 45 sec. 55° C. for 45 sec, 72° C. for 2 min, repeating 15 cycles. After the purification of the PCR product, the fragment was digested with KpnI-AvrII. The digested fragment was ligated into pBluescript IISK(−) (Strategene), which was linearized by digesting with KpnI-XhoI. The ligation was followed by transformation to a Dam/Dcm methylase-free E. coli strain SCS110 (Strategene) to create the donor plasmid pHH7. To direct VCAM-1 molecule into the insect cell secretory pathway, the VCAM-1 coding sequence was fused to signal peptide sequence of honeybee melittin. The resulting melittin-VCAM fusion was placed in correct orientation to the baculovirus polyhedrin promoter. Baculovirus transfer vector containing first 3-domain form VCAM-1 (pH 10) was constructed by ligation of 0.9 kb fragment from AvrII/Klenow/BclI digests of pH 7 into SalI/Klenow/BamHI digests of pMelBacB Invitrogen). Recombinant baculovirus was generated by using Bac-N-Blue™ Transfection kit (Invitrogen) according to the manufacture's instruction. The recombinant virus was amplified by infection to High-Five™ insect cells for 5-6 days, and virus titer was determined by plaque assay.
(§4) High-Five™ insect cells were pelleted in a 225 ml conical tube by centrifugation at 1000 rpm for 5 min. After discarding the supernatant, the pellet was resuspended in 1.5×10^9 pfu (MOI=5) of high-titer virus solution, followed by incubation for 1.5 hours at room temperature. The cells were pelleted again and washed once in fresh Express Five™ serum free medium. The cells were pelleted again and finally, resuspended in 200 ml of fresh Express Five TM medium, transferred to a 1,000 ml shaker flask, and incubated in a shaker at 27° C., 130 rpm, for 48 hours before the culture supernatant was collected. The purification of 3-domain form of VCAM-1 from the culture supernatant was performed by one-step anion exchange chromatography. Protein concentration was determined by using Coomassie protein assay reagent (Pierce) according to the manufacture's instruction.
(§5) Preparation of VCAM-1 Coated Microtiter Plates
(§6) Recombinant human VCAM-1 (extracellular domains 1-3) was dissolved at 1.0 μg/1 ml in PBS. Each well of the microtiter plates (Nalge Nunc International, Fluoro-nunc Cert, 437958) was coated with 100 μl of substrate or for background control with buffer alone for 15 hours at 4 C. After discarding the substrate solution, the wells were blocked using 150 μl per well of block solution Kirkegaard Perry Laboratories, 50-61-01) for 90 minutes. The plate was washed with wash buffer containing 24 mM Tris-HCl (pH 7.4), 137 mM NaCl, […] and 2 MM MnCl2 just before addition of the assay.
In Vitro Assay using Ramos Cells
Preparation of Fluorescence Labeled Ramos Cells:
Ramos cells (American Type Culture Collection, Clone CRL-1596) were cultured in RPMI 1640 medium (Nikken Bio Medical Laboratory, CM1101) supplemented with 10% fetal bovine serum (Hyclone, A-1119-L), 100 U/ml penicilin (Gibco BRL, 15140-122) and 100 μg/ml streptomycin (Gibco BRL, 15140-122) in a humidified incubator at 37° C. with 5% CO2. […]

Series [2] has as its system adhesion of Jurkat cells to VCAM-1. Kind of series: Adhesion of Jurkat cells to immobilized VCAM-1 (domains 1-3) (Jurkat—VCAM-1 assay). It counts as cell-based, human.
Text: as §1, §2, §3, §4, §5, §6
In Vitro Assay using Jurkat Cells
Preparation of Fluorescence Labeled Jurkat Cells:
Jurkat cells (American Type Culture Collection, Clone E6-1, ATCC TIB-152) were cultured in RPM 1640 medium (Nikken Bio Medical Laboratory, CM1101) supplemented with 10% fetal bovine serum (Hyclone, A-1119-L), 100 U/ml penicilin (Gibco BRL, 15140-122) and 100 μg/ml streptomycin (Gibco BRL, 15140-122) in a humidified incubator at 37° C. with 5% CO2. […]

On to `Cc1ccccc1NC(=O)Nc1ccc(CC(=O)N[C@@H](CC(C)C)C(=O)Nc2ccc(C(=O)O)c(Oc3ccccc3)c2)cc1` [Example 49], for which the melting point lay in the range of 158 to 160 °C. The IC50 in series [1] is under 0.5 µM.

`Cc1ccccc1NC(=O)Nc1ccc(CC(=O)N[C@@H](CC(C)C)C(=O)Nc2cc(Cl)c(C(=O)O)cc2Cl)cc1` [Example 50] had a melting point of 185 to 188 °C. In series [1], this compound showed an IC50 of 2 to 10 µM.

`Cc1ccccc1NC(=O)Nc1ccc(CC(=O)N[C@@H](CC(C)C)C(=O)N2CCCc3cc(C(=O)O)ccc32)cc1` [Example 52]: the IC50 in series [1] lay in the range of 2 to 10 µM.

`CCOC(=O)c1ccc(NC(=O)[C@H](CC(C)C)NC(=O)Cc2ccc(NC(=O)Nc3ccccc3C)cc2)c(Cl)c1` [Example 21] registered a melting point of 163 to 165 °C.

Take `COC(=O)c1ccccc1NC(=O)[C@H](CC(C)C)NC(=O)Cc1ccc(NC(=O)Nc2ccccc2C)cc1` [Example 15]: the melting point is 170 °C.

The compound `COC(=O)c1cc(Cl)c(NC(=O)[C@H](CC(C)C)NC(=O)Cc2ccc(NC(=O)Nc3ccccc3C)cc2)cc1Cl` [Example 26] had a melting point of 204 to 205 °C.

Turning to `Cc1ccccc1NC(=O)Nc1ccc(CC(=O)N[C@@H](CC(C)C)C(=O)N(C)c2nc(CC(=O)O)cs2)cc1` [Example 56], the melting point was in the range of 172 to 174 °C. The compound further displayed an IC50 in series [1] of over 10 µM.

The compound `Cc1ccccc1NC(=O)Nc1ccc(CC(=O)N[C@@H](CC(C)C)C(=O)Nc2ccc(-c3nnn[nH]3)cc2)cc1` [Example 27] had a melting point of 255 to 257 °C. Also, in series [1], the half-maximal inhibitory concentration (IC50) is 2 to 10 µM.

For `Cc1ccccc1NC(=O)Nc1ccc(CC(=O)N[C@@H](CCCCNC(=O)OCc2ccccc2)C(=O)Nc2ccc(C(=O)OCc3ccccc3)cc2)cc1` [Example 35], the melting point lay within 188 to 189 °C.

`COC(=O)Cc1ccc(NC(=O)[C@H](CC(C)C)NC(=O)Cc2ccc(NC(=O)Nc3ccccc3C)cc2)cc1` [Example 20]: the melting point is 222 °C.

`COC(=O)c1ccc(NC(=O)[C@H](CC(C)C)NC(=O)Cc2ccc(NC(=O)Nc3ccccc3C)cc2)cc1` [Example 17, Methyl 4-([({4-[(2-toluidinocarbonyl)amino]phenyl}acetyl)L-leucin]amino)benzoate]: the melting point lay in the range of 250 to 252 °C.

As to `Cc1ccccc1NC(=O)Nc1ccc(CC(=O)N[C@@H](CC(C)C)C(=O)Nc2nnc(CC(=O)O)s2)cc1` [Example 55], the melting point was in the range of 187 to 189 °C. Also, the IC50 in series [2] (Homo sapiens, Jurkat, 1 h) was in the range of 2 to 10 µM.

For `Cc1ccccc1NC(=O)Nc1ccc(CC(=O)N[C@@H](CC(C)C)C(=O)Nc2ccc(C(=O)O)cc2Cl)cc1` [Example 45], the melting point was in the range of 154 to 158 °C. Also, the half-maximal inhibitory concentration (IC50) entry in series [2] (Cell Type Jurkat, adhesion to VCAM-1 coated plates, 1 hour at 37 C, IC50 value ranges) is given as “A-B”.

The compound `COC(=O)Cc1ccccc1NC(=O)[C@H](CC(C)C)NC(=O)Cc1ccc(NC(=O)Nc2ccccc2C)cc1` [Example 18] came in with a melting point of 218 °C.

`Cc1ccccc1NC(=O)Nc1ccc(CC(=O)N[C@@H](CC(C)C)C(=O)Nc2ccccc2CC(=O)O)cc1` [Example 42] returned a melting point of 186 to 190 °C. For the same compound, in series [2] (Homo sapiens, Jurkat, 1 h), the half-inhibitory concentration (IC50) is over 10 µM.

On to `COC(=O)Cc1cccc(NC(=O)[C@H](CC(C)C)NC(=O)Cc2ccc(NC(=O)Nc3ccccc3C)cc2)c1` [Example 19], for which the melting point turned out to be 200 °C.

In the case of `Cc1ccccc1NC(=O)Nc1ccc(CC(=O)N[C@@H](CC(C)C)C(=O)Nc2cccc(C(=O)O)c2)cc1` [Example 40], the melting point turned out to be 220 °C. Moreover, the IC50 in series [2] (Homo sapiens, Jurkat, 1 h) is over 10 µM.

In turn, `Cc1ccccc1NC(=O)Nc1ccc(CC(=O)N[C@@H](CC(C)C)C(=O)Nc2cccc(CC(=O)O)c2)cc1` [Example 43] came in with a melting point of 178 to 181 °C. This compound returned an IC50 in series [2] (Homo sapiens, Jurkat, 1 h) of 0.5 to 2 µM.

Compound `COCCCN(CC(=O)Nc1ccc(C(=O)OC)cc1)C(=O)Cc1ccc(NC(=O)Nc2ccccc2C)cc1` [Example 36] had a melting point of 197 to 198 °C.

In the case of `Cc1ccccc1NC(=O)Nc1ccc(CC(=O)N[C@@H](CC(C)C)C(=O)Nc2nc(CC(=O)O)cs2)cc1` [Example 54], the melting point lay within 178 to 180 °C. In addition, the half-maximal inhibitory concentration (IC50) in series [2] (Homo sapiens, Jurkat, 1 h) fell in the range of 2 to 10 µM.

The compound `CCOC(=O)c1ccc(NC(=O)[C@H](CC(C)C)NC(=O)Cc2ccc(NC(=O)Nc3ccccc3C)cc2)c(OC)c1` [Example 22] showed a melting point of 139 to 141 °C.

For the compound `Cc1ccccc1NC(=O)Nc1ccc(CC(=O)N[C@@H](CC(C)C)C(=O)Nc2cc(C(=O)O)cc([N+](=O)[O-])c2)cc1` [Example 51], the melting point was 188 to 190 °C. Besides, the IC50 in series [1] fell in the range of 2 to 10 µM.

The compound `Cc1ccccc1NC(=O)Nc1ccc(CC(=O)N[C@@H](CC(C)C)C(=O)Nc2ccc(C(=O)O)cc2)cc1` [Example 41] registered a melting point of 219 to 223 °C. Further, in series [2] (Homo sapiens, Jurkat, 1 h), the IC50 was under 0.5 µM.

In turn, `Cc1ccccc1NC(=O)Nc1ccc(CC(=O)N[C@@H](CC(C)C)C(=O)NC2CCCCC2C(=O)O)cc1` (some centres unmarked) [Example 61] came in with an IC50 in series [1] of 2 to 10 µM.

In turn, `COC(=O)c1ccc(NC(=O)[C@H](CC(C)C)NC(=O)Cc2ccc(NC(=O)Nc3ccccc3C)cc2)cc1Nc1ccccc1` [Example 24] showed a melting point of 205 to 206 °C.

For `CCOC(=O)Cc1csc(N(C)C(=O)[C@H](CC(C)C)NC(=O)Cc2ccc(NC(=O)Nc3ccccc3C)cc2)n1` [Example 33], the melting point fell in the range of 125 to 130 °C.

In turn, `COC(=O)c1cccc(NC(=O)[C@H](CC(C)C)NC(=O)Cc2ccc(NC(=O)Nc3ccccc3C)cc2)c1` [Example 16] gave a melting point of 220 °C.

As for `Cc1ccccc1NC(=O)Nc1ccc(CC(=O)N[C@@H](CC(C)C)C(=O)NC2CCC(C(=O)O)CC2)cc1` (some centres unmarked) [Example 60], the melting point is 175 °C (dec.). Moreover, the IC50 in series [2] (Homo sapiens, Jurkat, 1 h) lay within 2 to 10 µM.

Turning to `CCOC(=O)C(c1ccc(NC(=O)[C@H](CC(C)C)NC(=O)Cc2ccc(NC(=O)Nc3ccccc3C)cc2)cc1)C1CCCC1` (some centres unmarked) [Example 30], the melting point lay within 186 to 189 °C.

The compound `Cc1ccccc1NC(=O)Nc1ccc(CC(=O)N[C@@H](CC(C)C)C(=O)Nc2ccccc2C(=O)O)cc1` [Example 39] came in with a melting point of 190 °C. For the same compound, the IC50 in series [2] (Homo sapiens, Jurkat, 1 h) is over 10 µM.

In series [2] (Homo sapiens, Jurkat, 1 h), `Cc1ccccc1NC(=O)Nc1ccc(CC(=O)N[C@@H](CC(C)C)C(=O)Nc2ccc3[nH]c(C(=O)O)cc3c2)cc1` [Example 57] had a 50% inhibitory concentration (IC50) of over 10 µM.

In turn, `Cc1ccccc1NC(=O)Nc1ccc(CC(=O)N[C@@H](CC(C)C)C(=O)Nc2ccc(C(C(=O)O)C3CCCC3)cc2)cc1` (some centres unmarked) [Example 53] registered a melting point of 206 to 208 °C. In series [2] (Homo sapiens, Jurkat, 1 h), the IC50 was 2 to 10 µM.

`Cc1ccccc1NC(=O)Nc1ccc(CC(=O)N[C@@H](CC(C)C)C(=O)Nc2ccc(CC(=O)O)cc2)cc1` [Example 44]: the melting point was found to be 206 °C. Also, the IC50 in series [2] (Homo sapiens, Jurkat, 1 h) was 2 to 10 µM.

Consider `COC(=O)c1ccc(NC(=O)[C@H](CC(C)C)NC(=O)Cc2ccc(NC(=O)Nc3ccccc3C)cc2)cc1Oc1ccccc1` [Example 25], for which the melting point is 191 to 195 °C.

The record behind these values is patent US20030232868A1, “Cyclic carboxylic acids as integrin antagonists” (priority 2000, published 2003).
